Data: a melting point compilation (Tetko et al.; mined from patent text by program, amines drawn as free bases though some values may be those of a salt)

Row | SMILES | melting point [°C]
1 | CC(O)(CCO)c1ccc(-c2ccc(F)cc2F)cc1 (centres undefined) | 82 to 84
2 | Cc1nnc(-c2ccc3ncn(-c4ccc(S(C)=O)cc4)c3c2)o1 (centres undefined) | 246 to 247
3 | Nc1cc(Cl)c(NCCO)cc1[N+](=O)[O-] | 130 to 131
4 | CCCc1ccc(-c2ccc(-c3ccc(F)s3)c(F)c2)cc1 | 64
5 | Cc1ccc(-c2ccc3c(c2)C=C(C(=O)N2CCC(NC(=O)C(F)(F)F)CC2)CCO3)cc1 | 189 to 192
6 | N#CC(NC(=O)C(F)(F)C(F)(F)C(F)(F)F)c1ccc(Cl)cc1 (centres undefined) | 93 to 95
7 | CC(=O)c1nc2ccc(C)cc2cc1O | 124 to 126
8 | COc1cc(OC)nc(Oc2cccc(NC(=O)C(C)(C)C)c2C(=O)O)n1 | 192 to 195
9 | COc1cccc(-n2c(=O)n(O)c(=O)c3cc(F)c(N4CCN(C)CC4)cc32)c1 | 158 to 160
10 | COC(=O)c1ncn(C2CCCCO2)c1CC#N (centres undefined) | 98 to 99
11 | COc1ccc2cc3c(c(-c4ccc5c(c4)OCO5)c2c1OC)C(=O)NC3=O | 274 to 276
12 | CCOc1c(C(O)CCc2ccn(C)c2)c(OCCN2CCCCC2)c(OC)c2occc12 (centres undefined) | 88
13 | CC(C)CCCC(C)C1CCC2C3CC=C4CC(OCCI)CCC4(C)C3CCC12C (centres undefined) | 86 to 88
14 | Cc1cc(NC(=O)C(=O)N(C(C)C)C(C)C)cc(C)c1S(=O)(=O)C[N+](=O)[O-] | 97 to 98
15 | CC(C)(OCc1cc2cc(C(F)(F)F)ccc2n1S(=O)(=O)c1ccccc1)C(=O)O | 134 to 136
16 | CCOC1=NS(=O)(=O)N(C)C(Cl)=N1 | 75 to 80
17 | O=c1[nH]c(-c2ccc(Cl)cc2)c(CN2CCOCC2)s1 | 206
18 | OC1CSC(Oc2cccnc2-c2ccoc2)C(O)C1O (centres undefined) | 128
19 | COCc1c(-c2nnc(N)o2)ncc2[nH]c3ccc(OCc4ccccc4)cc3c12 | 290 to 293
20 | COC=C(Br)c1c(C(F)(F)F)nc(C(F)F)c(C(=O)OC)c1CC1CC1 | 79 to 79.5
21 | CCCc1cc(CCC)c2oc(Cc3ccc(OC)cc3)c(C)c2c1O | 70 to 72
22 | Cc1c(-c2ccccc2)nn(C(C)C(=O)N(C)C)c1C (centres undefined) | 76 to 79
23 | O=C(NCc1ccc(C(F)(F)F)c(N2CCCCC2)c1)Nc1cccc2c1CC(O)CC2 (centres undefined) | 163
24 | O=C(NC[C@H]1CN(c2ccc3c(c2)CCCc2cn[nH]c2-3)C(=O)O1)c1ccccc1 | 105 to 125
25 | CCc1nn(-c2cc(NC(=O)c3ccccc3)ccc2Br)c(=O)n1Cc1ccc(-c2ccccc2S(=O)(=O)NC(=O)OC(C)(C)C)cc1F | 154 to 156

Row | SMILES | melting point [°C]
26 | CCCCCCOc1ccc2[nH]c(SC(C)(CO)c3ccccc3)cc2c1 (centres undefined) | 93.5 to 95.5
27 | CO[C@]1(c2cnc(SC)s2)CCO[C@@H]1C (racemic) | 51 to 52
28 | COC(=O)c1cn2c(=O)c(Cl)c(C)nc2s1 | 218 to 220
29 | COC(c1nccs1)(c1nccs1)C(F)(F)F | 40 to 41
30 | CNC(=NCCCCc1nccs1)NC#N | 87 to 89.5
31 | BrCc1cccc(-c2ccccc2)c1 | 54 to 56
32 | CNc1nc2ccc(CCc3nc4cc(C)ccn4c3C)cc2o1 | 203 to 205
33 | COc1ccc(/C=C/c2nc3c(c(=O)n(C)c(=O)n3C)n2C)c(OC)c1 | 242
34 | CCOC(=O)c1c(N(C)C)cc(C)c([N+](=O)[O-])c1Cl | 76
35 | CC1(C)C2CC[C@]1(CS(=O)(=O)NCCNCC1COc3ccccc3O1)C(=O)C2 (some centres undefined) | 143 to 146
36 | COc1ccc(Nc2nc(Cl)cc3ccccc23)cc1 | 101
37 | COc1ccccc1-n1c(=O)[nH]c2c(C(N)=O)nc(-c3cccc4[nH]ncc34)nc21 | 280
38 | CCCCN(Cc1ccc(-c2ccccc2-c2nnn[nH]2)cc1)c1nc(C)cc(C)n1 | 148 to 150
39 | N#CCN(CC#N)c1nc(Cl)nc(Cl)n1 | 154 to 158
40 | O=C(O)Cc1ccc(Cc2ccccc2CC(=O)O)cc1 | 155 to 156
41 | C/C(=N\O)c1cccc(NC(=O)NCC(=O)N(CC(=O)N(C)c2ccccc2)c2ccccc2)c1 | 170
42 | Cn1c(CCCCN2CCN(c3cc(C(C)(C)C)nc(C(C)(C)C)n3)CC2)nnc1-c1ccccc1 | 144 to 145
43 | Cc1c(OCc2ccccc2)ccc(-c2cc(O)c(SCCc3ccccc3)c(=O)o2)c1O | 147 to 148
44 | CCCc1c(OCC(O)CSc2ccc(C(=O)CCC(=O)O)cc2)ccc(C(C)=O)c1O (centres undefined) | 115 to 116
45 | CC(=O)NC(NC(=O)Nc1ccccc1)C(=O)NCc1ccccc1 (centres undefined) | 242
46 | CCCCN1C(=O)C(C)(C)N=C(c2ccccc2F)c2cc([N+](=O)[O-])cc(Cl)c21 | 151
47 | C#C[C@](C)(O)CCc1c(C)c(OC(C)=O)c(C)c(C)c1OC(C)=O | 96 to 102
48 | CC(C)Nc1n[nH]c(=O)n1N | 150 to 152
49 | Cc1cc(-c2nc3cccnn3c2-c2ccnc(NC(=O)Nc3ccsc3)c2)ccc1F | 234 to 235
50 | CCCCC(=O)NC(=O)C(c1ccccc1)c1ccccc1 | 83

Row | SMILES | melting point [°C]
51 | CCCCCCC(=N)NC(=S)Nc1ccc(OC(F)(F)F)cc1 | 90 to 91
52 | CCCCCCCCCCCCCCCCCCOC[C@@H]1CO[C@@H](COC(=O)Nc2ccncc2)C1 (relative stereo) | 118 to 123
53 | CSc1ccc(CC2C(C)=C(CCN(O)C(N)=O)c3ccccc32)cc1 (centres undefined) | 163 to 164
54 | C[C@@H](Cn1ncc2ccc(OCCO)c(Br)c21)NC(=O)OCc1ccccc1 | 97 to 99
55 | O=C1Nc2ccccc2C1c1ncnc2c1cnn2C1CCCC1 (centres undefined) | 228 to 231
56 | Cc1c(OCC(F)(F)F)ccnc1CS(=O)c1nc2cc(-n3ccnc3)c(F)cc2[nH]1 (centres undefined) | 234 to 235
57 | CC(=O)NCC1CC1c1cccc2nnsc12 (centres undefined) | 81 to 82
58 | CCOC(=O)c1c(C)nc(C(C)C)c2nnn(CC)c12 | 55 to 57
59 | CCCC(CCC)CCCC1COCCN1CCCCCO (centres undefined) | 59 to 60
60 | O=P(Oc1ccc2ccccc2c1)(Oc1ccc2ccccc2c1)Oc1ccc2ccccc2c1 | 110 to 111
61 | C=CCN(CC=C)c1nc(N(CC=C)CC=C)nc(N2CCN(C(=O)NC(c3ccccc3)c3ccccc3)CC2)n1 | 158 to 159
62 | c1ccc2nc(N3CCN(Cc4n[nH]c5ccccc45)CC3)ccc2c1 | 187 to 188
63 | N#Cc1cc(N)n(-c2c(Cl)cc(C(F)(F)F)cc2Cl)c1 | 176
64 | O=C(O)c1cc2c(=O)n(C3CCCC3)c3ccccc3n2c1 | 215 to 216
65 | CCOC(=O)c1ncn(C)c1N | 193 to 194
66 | CC(C)C(=O)Nc1nc(N)cnc1-c1cc(Cl)cc(Cl)c1Cl | 105 to 108
67 | Cc1c(Cl)nn(C(C)(C)C(=O)N(C)C)c1-c1ccccc1 | 134 to 136
68 | O=C1CC2SCCCN12 (centres undefined) | 145 to 147
69 | Cc1cc2c(c(C)c1N)CCO2 | 85 to 86
70 | Nc1ncc(-c2ccc(=O)n(Cc3ccccc3)n2)c(-c2ccccc2)n1 | 229 to 230
71 | OCc1cn(Cc2ccc(OCc3coc(-c4ccccc4)n3)cc2)nc1-c1cccs1 | 155 to 156
72 | COc1ccc2c(c1CC#N)Sc1c(ccc(OC)c1CN1C(=O)c3ccccc3C1=O)N2Cc1ccccc1 | 230
73 | N#Cc1ccc(-c2ccc(N3CC(CI)CC3=O)cc2)cc1 (centres undefined) | 178 to 179
74 | CC(C)(CNC(=O)Cc1ccccc1)NCC(O)c1cc(Cl)c(NC(=O)C(C)(C)C)c(Cl)c1 (centres undefined) | 83 to 85
75 | Nc1ccc(C(=O)c2ccccc2)c(F)c1 | 133 to 135

Row | SMILES | melting point [°C]
76 | COC(=O)c1ccc(-c2nnc(-c3ccc(C(F)(F)F)cc3)o2)c([N+](=O)[O-])c1 | 173 to 174
77 | CCOc1cc2c(c(F)c1F)OC(C1CCC(CC)CC1)CC2 (centres undefined) | 90
78 | CCOC(=O)OCC1OC(n2cc(C=CBr)c(=O)[nH]c2=O)CC1Cl (centres undefined) | 181
79 | Cc1cc(Cn2nnn(-c3ccc(C(F)(F)F)cc3)c2=O)ccc1NC(=O)c1cccc(I)c1C(=O)NC(C)(C)CS(C)(=O)=O | 108 to 112
80 | CC(=O)NCCCSc1c(Cc2cccc3ccccc23)sc2c1c(=O)n(C)c(=O)n2CC(C)C | 114 to 117
81 | CCC(C)(O)C1(c2cccc(OC)c2)CCN(C)CC1 (centres undefined) | 134 to 135
82 | CCCC(=O)OCC(=O)C1(OC(=O)CC)CCC2C3CC(C)C4=CC(=O)CCC4(C)C3C(O)CC21C (centres undefined) | 211
83 | Cc1c(C(=O)Nc2ccc(N3CCC(N4CCOCC4)CC3)cc2C#N)cnn1-c1ccc(C(F)(F)F)cc1 | 210 to 212
84 | FCc1cccc(C#CCCc2nc3ccccc3s2)n1 | 74 to 76
85 | O=C1C2CCN(CC2)C1Cc1ccc(-c2ccc(F)cc2)cc1 (centres undefined) | 122 to 123
86 | CCCCc1nc(Cl)c(CO)n1Cc1ccccc1Cl | 134 to 135
87 | C[C@H]1[C@@H](C(C)(C)O)CCN1c1ccc(C#N)c2sccc12 | 146 to 147
88 | O=C(N1CCCC1)N1Cc2c(-c3noc(C4CC4)n3)ncn2-c2cccc(F)c21 | 220 to 222
89 | Cc1nc(Sc2ccc(C(F)(F)F)cn2)sc1CC(=O)O | 113 to 114
90 | CCCCCCCCCCCCCCCCC[C@@H](C[C@@H]1OC(=O)[C@H]1CC)OC(=O)[C@H](CC(C)C)NC=O | 60 to 61
91 | CC(C)[C@H](NC(=O)N(C)Cc1csc(NC(=O)OC(C)(C)C)n1)C(=O)N[C@@H](Cc1ccccc1)C[C@H](O)[C@H](Cc1ccccc1)NC(=O)OCc1cccnc1 | 103 to 105
92 | Cc1ccc(O)c(NC(=O)c2cc(C)sc2Br)c1 | 173 to 175
93 | CC(NC1CCC(=O)NC1c1ccc(F)cc1)c1cc(C(F)(F)F)cc(C(F)(F)F)c1 (centres undefined) | 120
94 | CCCCCN(C(=O)c1cnc(N2CC(C)(C)NC2=O)nc1N)c1cccc(C(F)(F)F)c1 | 167 to 168
95 | Cn1cc(C=O)cc1C(=O)OC(C)(C)C | 92
96 | Cn1cc(-c2cc(Cl)cc(Cl)c2)c(=O)c(-c2cc(Cl)cc(Cl)c2)c1 | 275 to 278
97 | Nc1n[nH]c2ccc(Cl)cc12 | 162 to 163
98 | CCCCCCCCCCCCCCCCCNC(=O)O[C@@H]1CCCO[C@H]1COCc1ccccc1 (relative stereo) | 61 to 63
99 | COc1ccc(C(=O)Nc2ccccc2)cc1NCc1ccc(F)cc1 | 165 to 167
